Laboratory results as given in ChEMBL document CHEMBL1201862, “PubChem BioAssay data set” (2004).
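96-well plates; 48 h exposure; 5 concentrations. Endpoints by linear interpolation between flanking doses. Not reached: highest tested concentration assigned. GI50 = concentration required for 50% inhibition of growth.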 Calls of active or inactive are those of the source. Rule as the data show it: active = GI50 up to about 1.1 µM and inactive = higher.

What was measured:
Test in all cases: NCI anticancer screen, dose series, 48 h
[1] = tested on: NCI-H226
[2] = tested on: HT-29
[3] = tested on: 786-0
[4] = tested on: MCF7
[5] = tested on: A549
[6] = tested on: OVCAR-5
[7] = tested on: OVCAR-4
[8] = tested on: HL-60
[9] = tested on: NCI/ADR-RES
[10] = tested on: SNB-75
[11] = tested on: CCRF-CEM
[12] = tested on: SK-OV-3
[13] = tested on: IGROV-1
[14] = tested on: UACC-62
[15] = tested on: NCI-H460
[16] = tested on: ACHN
[17] = tested on: SR
[18] = tested on: COLO 205
[19] = tested on: SF-268
[20] = tested on: NCI-H23
[21] = tested on: SK-MEL-28
[22] = tested on: M14
[23] = tested on: MDA-MB-435
[24] = tested on: T47D
[25] = tested on: SK-MEL-5
[26] = tested on: CAKI-1
[27] = tested on: SK-MEL-2
[28] = tested on: RPMI-8226
[29] = tested on: SW-620
[30] = tested on: Malme-3M
[31] = tested on: K562
[32] = tested on: MOLT-4
[33] = tested on: HOP-62
[34] = tested on: HOP-92
[35] = tested on: RXF 393
[36] = tested on: U-251
[37] = tested on: OVCAR-8
[38] = tested on: EKVX
[39] = tested on: LOX IMVI
[40] = tested on: SN12C
[41] = tested on: MDA-MB-231
[42] = tested on: HCT-15
[43] = tested on: DU-145
[44] = tested on: TK-10
[45] = tested on: UACC-257
[46] = tested on: PC-3
[47] = tested on: KM12
[48] = tested on: HCC 2998
[49] = tested on: SF-295
[50] = tested on: MDA-N
[51] = tested on: A498
[52] = tested on: SNB-19
[53] = tested on: HCT-116
[54] = tested on: OVCAR-3
[55] = tested on: UO-31

Measured: GI50

COc1ccc(/C=C\c2cc(OC)c(OC)c(OC)c2)cc1OC(=O)C(N)CCC(=O)O (stereo not drawn)
inactive: [2] 2.34 µM
active: [1] 0.00123 µM | [3] 0.000792 µM | [4] 0.00187 µM | [5] 0.000944 µM

C=CCNc1nc2c(N)ncnc2s1
inactive: [6] > 10 µM | [7] > 10 µM | [8] > 10 µM | [9] > 10 µM | [10] > 10 µM | [11] > 10 µM | [12] > 10 µM | [13] > 10 µM | [14] > 10 µM | [15] > 10 µM | [16] > 10 µM | [17] > 10 µM | [18] > 10 µM | [19] > 10 µM | [20] > 10 µM | [3] > 10 µM | [4] > 10 µM | [21] > 10 µM | [22] > 10 µM | [23] > 10 µM | [24] > 10 µM | [25] > 10 µM | [5] > 10 µM | [26] > 10 µM | [27] > 10 µM | [28] > 10 µM | [29] > 10 µM | [30] > 10 µM | [31] > 10 µM | [32] > 10 µM | [33] > 10 µM | [34] > 10 µM | [35] > 10 µM | [36] > 10 µM

Fc1ccc(-c2sc(-c3ccsc3)cc2Cc2ccsc2)cc1
> 10 µM: [42]
inactive: [7] > 10 µM | [8] > 10 µM | [10] > 10 µM | [11] > 10 µM | [12] > 10 µM | [37] > 10 µM | [38] > 10 µM | [13] > 10 µM | [39] > 10 µM | [40] > 10 µM | [41] > 10 µM | [14] > 10 µM | [2] > 10 µM | [17] > 10 µM | [43] > 10 µM | [18] > 10 µM | [44] > 10 µM | [19] > 10 µM | [20] > 10 µM | [3] > 10 µM | [4] > 10 µM | [21] > 10 µM | [45] > 10 µM | [46] > 10 µM | [22] > 10 µM | [47] > 10 µM | [23] > 10 µM | [24] > 10 µM | [25] > 10 µM | [5] > 10 µM | [26] > 10 µM | [28] > 10 µM | [48] > 10 µM | [29] > 10 µM | [49] > 10 µM | [30] > 10 µM | [31] > 10 µM | [32] > 10 µM | [50] > 10 µM | [33] > 10 µM | [34] > 10 µM | [35] > 10 µM

COc1cc(/C=C/c2ccc(S(N)(=O)=O)cc2)cc(OC)c1
inactive: [6] 39.8 µM | [9] 23.8 µM | [10] 14.1 µM | [12] 24.5 µM | [38] 22.4 µM | [40] 22.6 µM | [41] 16.9 µM | [51] 18.2 µM | [15] 17.7 µM | [43] 32.7 µM | [18] 15.9 µM | [44] 22.4 µM | [3] 21.5 µM | [4] 24.6 µM | [52] 39.1 µM | [21] 23.9 µM | [45] 20.3 µM | [46] 19.5 µM | [22] 51.2 µM | [24] 8.18 µM | [25] 16.2 µM | [27] 18.7 µM | [48] 19.7 µM | [53] 14.5 µM | [49] 22.6 µM | [30] 14.8 µM | [54] 16.5 µM | [50] 20.6 µM | [33] 28.9 µM | [35] 13.1 µM | [55] 21.9 µM
